The structures appear in SMILES notation. Entries after “also recorded” stand apart in the source; their conditions may differ.

A short description of data set [1]: Pharmacokinetics and organ levels of PD98059 following IV injection in healthy rats. It is filed as in vivo. The method, then:
1: Pharmacokinetics of PD98059. Rats were anaesthetized using urethane and a canula was inserted in the femoral vein. A solution of PD98059 dissolved in 10% Tween 80 in sterile 1× DPBS at a concentration of 0.5 mg/ml (total volume 2 ml) was administered slowly by intravenous infusion. After 5, 15, 30, 60, 180, and 360 minutes, blood samples were withdrawn from rats. Major organs (liver, kidney, brain, and heart) were collected from rats after 1 and 3 hours (n=3/time point).
All blood samples were collected into 4 ml BD Vacutainer® blood collection tubes (K2-EDTA, Becton, Dickinson, and Company, Franklin Lakes, N.J.). Plasma samples were collected by centrifugation (3,300×g, 15 min), and frozen at −80° C. until analyzed. Plasma samples were thawed on ice, and a volume of 100 μl of plasma was transferred to a 15 ml tube, and spiked with 15 μl of the internal standard (IS) solution (10 μg/ml of 7-hydroxyfiavone in methanol). Collected organs were rinsed in PBS, then frozen at −80° C. For organs, a portion of each organ (200-400 mg) was accurately weighed and homogenized (Fisher Brand Bead Mill 4 Homogenizer, Hampton, N.H.) in 250 μl of 1× DPBS using 20-25 2.5 mm ceramic beads per sample, and spiked with 15 μl of the internal standard (IS) solution. One ml of cold acetonitrile was added to 100 μl of plasma samples or 400 μl of the tissue homogenate and vortexed for 1 min. The samples were kept on ice for 15 min to precipitate the proteins, then the tubes were centrifuged (4° C., 3,300×g, 10 min) and the supernatant was collected, and evaporated under nitrogen stream.
In the case of protocols 1 and 2, the residue in each tube was then dissolved in the mobile phase (described in the HPLC section below), centrifuged (12,000×g, 5 min), and the supernatant was injected in the HPLC and analyzed by the method described below. A standard curve was prepared using plasma and tissues collected from naive rats. These plasma or tissue homogenate samples were spiked with 15 μl of the IS solution as mentioned above, in addition to 15 μl of standard solutions of PD98059 in methanol at different concentrations. Pharmacokinetic parameters were calculated using PK Solver.
An Agilent HPLC workstation was used for sample analysis (Agilent Infinity 1100, Santa Clara, Calif.) that consisted of an Agilent quaternary pump, automatic injection port, and Agilent diode array detector (Agilent Corporation, Santa Clara, Calif.). A RP-C18 column was used for analysis (Waters Symmetry, 5 μm pore size, 4.6 mm×150 mm, Milford, Mass.). The mobile phase consisted of methanol: water 70:30 with 0.1% v/v trifluoroacetic acid, and the flow rate was 1 ml/min at room temperature. The detection wavelength was set to 275 nm.

Another data set concerns MEK. The settings on record: Dudley et al.; cited from earlier work.
In data set [2] the test system is PVN neuronal excitation and sympathetic nerve activity. Conditions: cited from earlier work.
Data set [3] has as its system plasma levels of norepinephrine; PVN p-ERK1/2. The settings on record: HF rats, cited from earlier work.
Data set [4] can be described thus: In vitro drug release of PD98059-loaded microparticles (Examples 1/3, centrifugation and medium replacement). It is filed as physicochemical. Conditions: PD98059 powder; DPBS with 0.4% w/v Tween 80, 37° C. The method, then: A weighed amount of the microparticles was suspended in 5 ml of the release medium (Dulbecco's phosphate buffered saline, DPBS, Life Science, Waltham, Mass.) that contains 0.4% w/v Tween 80 at an amount equivalent to 0.065 mg microparticles in 50 ml tube (n=3). The tubes were placed in an orbital shaker (New Brunswick Scientific, Edison, N.J.) operating at 300 rpm and 37° C. At pre-determined time points, the tube was centrifuged (1000×g for 5 min) and the whole volume of the release medium (5 ml) was removed and replaced completely with fresh medium in which the pellet was re-suspended. The concentration of PD98059 was measured in the samples using the HPLC method described below. The standard curve range was 0.125-10 μg/ml, and the r^2 value was 0.9998.
An Agilent Infinity 1100 HPLC (Santa Clara, Calif.) was used for to analyze PD98059 content and release of the microparticles. […] The flow rate used was 1 ml/min at room temperature, and the wavelength at which PD98059 was detected at 275 nm.
A weighed amount of the microparticles was suspended in 5 ml of the release medium (Dulbecco's phosphate buffered saline, DPBS, Life Science, Waltham, Mass.) that contains 0.4% w/v Tween 80 at an amount equivalent to 0.065 mg microparticles in 50 ml tube (n=3). […] The concentration of PD98059 was measured in the samples using the HPLC method described below. […]

Regarding `COc1cccc(-c2cc(=O)c3ccccc3o2)c1N` [PD98059], the AUC0-t in data set [1] (IV injection of 1 mg of PD98059 in solution, non-compartmental analysis) turned out to be 2378.7 ng·h/mL. For the same compound, in data set [1] (healthy rats, IV 1 mg), the “brain PD98059 level at 1 hour” value is “approximately 410 ng/g” and the “brain PD98059 level at 3 hours” value is reported as roughly 76 ng/g. In addition, the “drug levels in major organs (liver, kidney, brain, heart)” value in data set [1] (healthy rats, IV 1 mg, 1 and 3 hours) is “drug levels in the liver and kidney were comparatively higher than those in the brain and heart”. Besides, in data set [1] (rats), the “crossing of the blood brain barrier” value is given as “a significant portion of the drug crossed the blood brain barrier; also recorded: found to cross the blood brain barrier” and the elimination half-life entry is given as “above 1 hour”. Besides, the “elimination half-life in plasma” value in data set [1] (rats, IV injection of PD98059 solution, 1 mg) amounted to 1.22 h. Besides, the “pharmacokinetic model that fits the data” value in data set [1] (rats, IV, PK Solver) is 2-compartment model. Besides, the “in vitro activity of MEK once PD98059 was removed from the medium” value with MEK was “fully and instantaneously restored”. In addition, the heart rate entry in data set [2] (HF rats, 1-h ICV infusion, compared to SHAM or untreated animals) is given as “significantly decreased”. In addition, in data set [2] (heart failure rats, 1-hour ICV infusion), the “PVN neuronal excitation and (renal) sympathetic nerve activity” value is “decreased; also recorded: inhibited”. Further, the plasma norepinephrine levels result in data set [3] (ICV infusion for 4 weeks) is “significant reduction; also recorded: reduced; also recorded: normalized”. The “PVN p-ERK1/2” value in data set [3] (long term ICV infusion) is listed as “successfully decreased”. In addition, in data set [4], the “time for 80% of the unencapsulated drug to dissolve in the release medium” value amounted to 24 h.

Source of the values: patent publication US20210361578A1, “MEK1/2 INHIBITOR-LOADED MICROPARTICLE FORMULATION” (University of Iowa Research Foundation, priority 2020, published 2021).
